Read-outs that look alike come from different tables or passages of the source.
System: γ-secretase (production of amyloid beta protein Aβ (1-42))
Experiment: Cell-based γ-secretase assay with ELISA readout (Aβ (1-42) production)
Set-up: species or system human WT-APP overexpressing CHO cells
Description: Cell-Based γ-Secretase Assay with ELISA Readout
The ability of compounds to modulate production of amyloid beta protein Aβ (1-42) was determined using human WT-APP overexpressing CHO cells. Cells were plated at 22,000 cells/100 μL well in 96 well tissue culture treated, clear plates (Falcon) in DMEM/F12 based medium and incubated for 24 hours at 37° C. Compounds for testing were diluted in 100% DMSO to achieve an eleven points, half log, dose response for IC50 determinations. Compounds were added in fresh medium to achieve 1% final DMSO. Appropriate vehicle and inhibitor controls were added to obtain maximum and minimum inhibition values for the assay before the plates were incubated for about 24 hours at 37° C.
Coating of ELISA assay plates was initiated by addition of 50 μL/well of an in-house Aβ (1-42) specific antibody at (4 μg/mL) in 0.1 M NaHCO3 (pH 9.0) into black 384-well Maxisorp® plates (Nunc) and incubated overnight at 4° C. The capture antibody was then aspirated from the ELISA assay plates and 100 μL/well of Blocking Buffer (Dulbecco's PBS, 1.5% BSA (Sigma A7030)) added. Ambient temperature incubation was allowed to proceed for a minimum of two hours before washing 2×100 μL with Wash Buffer (Dulbecco's PBS, 0.05% Tween 20). Assay Buffer (Dulbecco's PBS, 1.0% BSA (Sigma A7030), 0.05% Tween 20) 20 μL/well was then added.
After incubation overnight at 37° C., 5% CO2, 40 μL (in duplicate) of experimental conditioned media were transferred into wells of the blocked ELISA plates containing the capture antibody, followed by overnight incubation at 4° C. Cell toxicity was measured in the corresponding cells after removal of the media for the Aβ (1-42) assay by a colorimetric cell proliferation assay (CellTiter 96® AQueous One Solution Cell Proliferation Assay, Promega) according to the manufacturer's instructions.
After overnight incubation of the ELISA assay plates at 4° C., unbound Aβ peptides were removed thorough (4×100 μL) washes with Wash Buffer. Europium (Eu) labeled (custom labeled, Perkin Elmer) Aβ (1-16) 6e10 Monoclonal Antibody (Covance #SIG-39320 was added, (50 μL /well Eu-6e10 @ 1:5000, 20 uM EDTA) in Assay Buffer. Incubation at ambient temperature for a minimum of 2 hours was followed by (4×100 μL) washes with Wash Buffer, before 50 μL/well of Delfia Enhancement Solution (Perkin Elmer) was added. Following a one hour ambient temperature incubation, the plates were read on an EnVision plate reader (Perkin Elmer) using standard DELFIA TRF settings. Data analysis including inhibitory IC50 determination was performed using nonlinear regression fit analysis (in-house software) and the appropriate plate mean values for the maximum and minimum inhibition controls.

[1] = human WT-APP overexpressing CHO cells, Aβ (1-42) ELISA, about 24 hours at 37° C., free base or salt, read-out: Aβ 42B IC50 (μM) (Geometric Mean of 2-8 Determinations)
[2] = Geometric mean of at least 2 determinations, Table 3, read-out: Aβ 42 IC50 (μM)*

| IC50 [1] | IC50 [2] | SMILES |
| --- | --- | --- |
|  | 0.194 µM | COc1nc(C(=O)NC2COc3ccc(Cl)c(F)c32)ccc1-n1cnc(C)c1 (stereo not drawn) [Example 49, N-[5-chloro-4-fluoro-2,3-dihydro-1-benzofuran-3-yl]-6-methoxy-5-(4-methyl-1H-imidazol-1-yl)pyridine-2-carboxamide] |
|  | 0.2 µM | COc1nc(C(=O)NC2COc3cc(C)c(Cl)cc32)ccc1-n1cnc(C)c1 (stereo not drawn) [Example 50, N-[5-chloro-6-methyl-2,3-dihydro-1-benzofuran-3-yl]-6-methoxy-5-(4-methyl-1H-imidazol-1-yl)pyridine-2-carboxamide] |
|  | 0.234 µM | COc1nc(C(=O)NC2COc3ccc(Cl)c(C)c32)ccc1-n1cnc(C)c1 (stereo not drawn) [Example 51, N-(5-chloro-4-methyl-2,3-dihydro-1-benzofuran-3-yl)-6-methoxy-5-(4-methyl-1H-imidazol-1-yl)pyridine-2-carboxamide] |
|  | 0.364 µM | COc1nc(C(=O)NC2COc3c(C)cc(Cl)cc32)ccc1-n1cnc(C)c1 (stereo not drawn) [Example 52, N-(5-chloro-7-methyl-2,3-dihydro-1-benzofuran-3-yl)-6-methoxy-5-(4-methyl-1H-imidazol-1-yl)pyridine-2-carboxamide] |
|  | 0.373 µM | COc1nc(C(=O)N[C@H]2COc3ccc(Cl)cc32)ccc1-n1cnc(C)c1 [Example 53, N-[(3R)-5-chloro-2,3-dihydro-1-benzofuran-3-yl]-6-methoxy-5-(4-methyl-1H-imidazol-1-yl)pyridine-2-carboxamide] |
|  | 0.411 µM | COc1nc(C(=O)NC2COc3ccc(C(F)(F)F)c(F)c32)ccc1-n1cnc(C)c1 (stereo not drawn) [Example 54, N-[4-fluoro-5-(trifluoromethyl)-2,3-dihydro-1-benzofuran-3-yl]-6-methoxy-5-(4-methyl-1H-imidazol-1-yl)pyridine-2-carboxamide] |
|  | 0.423 µM | COc1nc(C(=O)NC2COc3cc(F)c(Cl)cc32)ccc1-n1cnc(C)c1 (stereo not drawn) [Example 55, N-[5-chloro-6-fluoro-2,3-dihydro-1-benzofuran-3-yl]-6-methoxy-5-(4-methyl-1H-imidazol-1-yl)pyridine-2-carboxamide] |

Further lines, the compound ahead of its results:

| SMILES | IC50 [1] | IC50 [2] |
| --- | --- | --- |
| COc1nc(C(=O)NCc2ccc(F)c(C3CC3)c2)ccc1-n1cnc(C)c1 [Example 42, N-(3-cyclopropyl-4-fluorobenzyl)-6-methoxy-5-(4-methyl-1H-imidazol-1-yl)pyridine-2-carboxamide] | 0.319 µM |  |
| COc1nc(C(=O)NCc2cc(Cl)cc(Cl)c2)ccc1-n1cnc(C)c1 [Example 43, N-(3,5-dichlorobenzyl)-6-methoxy-5-(4-methyl-1H-imidazol-1-yl)pyridine-2-carboxamide] | 0.216 µM |  |
| COc1nc(C(=O)NCc2ccc(Cl)cc2Cl)ccc1-n1cnc(C)c1 [Example 44, N-(2,4-dichlorobenzyl)-6-methoxy-5-(4-methyl-1H-imidazol-1-yl)pyridine-2-carboxamide] | 0.394 µM |  |
| COc1cc(C(=O)NCC2(c3ccc(F)cc3)CC2)cnc1-n1cnc(C)c1 [Example 45, N-{[1-(4-fluorophenyl)-cyclopropyl]methyl}-5-methoxy-6-(4-methyl-1H-imidazol-1-yl)nicotinamide] | 2.23 µM |  |
| COc1cc(C(=O)N2CC[C@@H](Oc3ccccc3C(F)(F)F)C2)cnc1-n1cnc(C)c1 [Example 46, 3-methoxy-2-(4-methyl-1H-imidazol-1-yl)-5-({(3R)-3-[2-(trifluoromethyl)-phenoxy]pyrrolidin-1-yl}carbonyl)pyridine] | 2.3 µM |  |
| COc1cc(C(=O)N2CC[C@H](Oc3ccccc3C(F)(F)F)C2)cnc1-n1cnc(C)c1 [Example 47, 3-methoxy-2-(4-methyl-1H-imidazol-1-yl)-5-({(3S)-3-[2-(trifluoromethyl)-phenoxy]pyrrolidin-1-yl}carbonyl)pyridine] | 3.44 µM |  |
| COc1nc(C(=O)N2CC(COc3cccc4ccccc34)C2)ccc1-n1cnc(C)c1 [Example 48, 2-methoxy-3-(4-methyl-1H-imidazol-1-yl)-6-({3-[(1-naphthyloxy)methyl]azetidin-1-yl}carbonyl) pyridine] |  | 0.096 µM |
| COc1nc(C(=O)NC2COc3ccc(C(F)(F)F)cc32)ccc1-n1cnc(C)c1 (stereo not drawn) [Example 56, 6-methoxy-5-(4-methy-1H-imidazol-1-yl)-N-[5-(trifluoromethyl)-2,3-dihydro-1-benzofuran-3-yl]pyridine-2-carboxamide] |  | 0.478 µM |

— US20120202787A1, “Novel Heteroaryl Imidazoles And Heteroaryl Triazoles As Gamma-Secretase Modulators” (Pfizer Inc., priority 2009, published 2012)
